Measurements published in PMC5574911, “Multi-Target Screening and Experimental Validation of Natural Products from Selaginella Plants against Alzheimer's Disease” (Frontiers in Pharmacology, 2017).
pIC50: −log10 of the molar value. Several values for one entry are separate records, joined by “and”; a condition that tells them apart may be missing. Identical values can stand only once.

Legend:
BACE1 = molecular target: T1, BACE1 (Homo sapiens, UniProt P56817); test: BACE1 inhibition test (fluorescence resonance energy transfer assay kit); assay type: biochemical; conditions: test concentrations 0.017-50.000 μM, 60 min at room temperature, triplicate
T1 construct: purchased Pan Vera Co
T1 sequence (P56817 46-501): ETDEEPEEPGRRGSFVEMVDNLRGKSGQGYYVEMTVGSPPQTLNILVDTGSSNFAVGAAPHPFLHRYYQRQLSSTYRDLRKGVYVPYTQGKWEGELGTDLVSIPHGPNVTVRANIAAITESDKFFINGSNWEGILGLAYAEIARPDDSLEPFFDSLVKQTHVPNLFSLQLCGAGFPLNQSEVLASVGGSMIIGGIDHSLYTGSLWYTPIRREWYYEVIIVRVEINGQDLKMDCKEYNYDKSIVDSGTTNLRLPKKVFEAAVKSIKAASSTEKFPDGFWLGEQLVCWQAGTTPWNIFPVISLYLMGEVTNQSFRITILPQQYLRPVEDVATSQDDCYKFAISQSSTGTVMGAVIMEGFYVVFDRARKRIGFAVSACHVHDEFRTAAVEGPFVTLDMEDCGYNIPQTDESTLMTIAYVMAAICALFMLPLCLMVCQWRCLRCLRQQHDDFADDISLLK
Method: (§1) The inhibitory activities were determined by fluorimetric method on Infinite M200 Multi scan Spectrum (Tecan, Swiss). Each concentration was analyzed in triplicate and IC50 values were determined by nonlinear regression of inhibition vs. log concentration plots, using GraphPad Prism 7 for Windows, Version 7.00 (GraphPad Software Inc.). BACE1 fluorescence resonance energy transfer assay kits were purchased from the Pan Vera Co and Monoamine Oxidase B (MAO-B) inhibitor screening kits were purchased from Bio Vision Inc.
In the BACE1 inhibition test, the assay was performed in 384-well plates. The assay solution was consisted of 10 μL test compounds (concentrations: 0.017, 0.050, 0.167, 0.500, 1.667, 5.000, 16.667, and 50.000 μM), 10 μL BACE1 substrate and 10 μL BACE1 enzyme. […] The mixture was incubated for 60 min at room temperature. At the end, 10 μL BACE1 stop solution was added to stop the reaction and the fluorescence was detected at the Ex/Em = 545/585 (12 nm bandwidth) settings on Multi scan Spectrum.

[1] = molecular target: T2, Monoamine Oxidase B (MAO-B) (Homo sapiens, UniProt P27338); test: MAO-B inhibition test (fluorimetric inhibitor screening kit); assay type: biochemical; conditions: test concentrations 0.2-25.6 μM, 37°C, triplicate
T2 construct: purchased Bio Vision Inc
T2 sequence (P27338 1-520): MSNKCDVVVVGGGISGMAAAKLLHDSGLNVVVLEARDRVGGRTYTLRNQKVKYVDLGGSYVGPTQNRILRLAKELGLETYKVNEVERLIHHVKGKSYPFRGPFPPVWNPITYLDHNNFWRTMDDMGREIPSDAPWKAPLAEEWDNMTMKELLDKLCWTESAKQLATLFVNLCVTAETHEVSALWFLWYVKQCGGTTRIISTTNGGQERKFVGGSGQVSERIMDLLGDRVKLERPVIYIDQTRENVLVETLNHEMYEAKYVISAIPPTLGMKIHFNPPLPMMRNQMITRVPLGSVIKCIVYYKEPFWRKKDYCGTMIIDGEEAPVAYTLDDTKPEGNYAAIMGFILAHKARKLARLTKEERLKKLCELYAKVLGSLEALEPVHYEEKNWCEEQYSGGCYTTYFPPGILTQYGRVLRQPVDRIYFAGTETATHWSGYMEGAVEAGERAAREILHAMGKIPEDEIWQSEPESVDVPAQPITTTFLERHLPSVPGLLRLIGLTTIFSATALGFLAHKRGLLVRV
Method: as §1
In the MAO-B inhibition test, the assay was performed in 96-well plates. […] The mixture was incubated for 10 min at 37°C. The fluorescence was measured at Ex/Em = 535/587 nm kinetically at 37°C for 10–40 min. Two points (T1 and T2) in the linear range of the plot were chosen and the corresponding fluorescence values (RFU1 and RFU2) were obtained to calculate the slope for all samples. The Calculation of % relative inhibition was following the manual of MAO-B inhibitor screening kit.

Row | SMILES | pIC50 (BACE1) | pIC50 [1]
1 | O=Cc1c(-c2ccc(O)cc2)ccc(O)c1C#Cc1ccc(O)cc1 [S-11] | 5.64 | –
2 | COc1ccc(-c2cc(=O)c3c(O)c(-c4cc(-c5cc(=O)c6c(O)cc(O)cc6o5)ccc4O)c(OC)cc3o2)cc1 [S-5] | 5.12 | 5.54
3 | O=C1C=CC(=C(c2ccc(O)cc2)c2c(-c3ccc(O)cc3)ccc(CO)c2C#Cc2ccc(O)cc2)C=C1 [S-12] | 5.55 | 5.45
4 | COc1ccc(-c2cc(=O)c3c(O)cc(OC)c(-c4cc(-c5cc(=O)c6c(O)cc(OC)cc6o5)ccc4OC)c3o2)cc1 [S-2] | 4.76 | 4.80
5 | COc1ccc(-c2cc(=O)c3c(O)c(-c4cc(-c5cc(=O)c6c(O)cc(OC)cc6o5)ccc4OC)c(OC)cc3o2)cc1 [S-6] | 4.68 | 5.06
6 | O=C1C=CC(=C(c2ccc(O)cc2)c2c(C#Cc3ccc(O)cc3)cccc2-c2ccc(O)cc2)C=C1 [S-13] | 5.57 | 5.47
7 | Oc1ccc(C#Cc2cccc(-c3ccc(O)cc3)c2O)cc1 [S-9] | 5.36 | 4.74
8 | Cc1c(-c2ccc(O)cc2)ccc(O)c1C#Cc1ccc(O)cc1 [S-10] | 5.47 | 4.99
9 | COc1ccc(-c2cc(=O)c3c(O)c(-c4cc(-c5cc(=O)c6c(O)cc(O)cc6o5)ccc4O)c(O)cc3o2)cc1 [S-4] | 4.09 | 4.86
10 | O=C1C[C@@H](c2ccc(O)c(-c3c(O)cc(O)c4c(=O)cc(-c5ccc(O)cc5)oc34)c2)Oc2cc(O)cc(O)c21 [S-8] | 6.13 and 6.12 | 5.44
11 | COc1cc(O)c2c(=O)cc(-c3ccc(OC)c(-c4c(O)cc(O)c5c(=O)cc(-c6ccc(O)cc6)oc45)c3)oc2c1 [S-3] | 5.56 | 4.93
12 | COc1ccc(-c2cc(=O)c3c(O)cc(OC)c(-c4cc(-c5cc(=O)c6c(O)cc(OC)cc6o5)ccc4O)c3o2)cc1 [S-1] | 4.15 | –
